Entries after “also recorded” stand apart in the source; their conditions may differ. Read-outs that look alike come from different tables or passages of the source.
Assays:
HMG‐CoA reductase = settings: cited from earlier work
Safety monitoring = assay type: in vivo, human (healthy subjects); settings: for Tolerability: doses administered alone or in combination, healthy subjects
[1] = oral contraceptives, CYP3A substrates; cited from earlier work
CYP3A = settings: upadacitinib 30 mg once daily, healthy subjects; cited from earlier work
[2] = assay type: in vivo, human (healthy subjects)
[3] = cited from earlier work
[4] = system: breast cancer resistance protein (BCRP); settings: in vitro assessments; cited from earlier work
CYP1A2 = settings: following upadacitinib dosing in the cocktail drug interaction study; cited from earlier work
[5] = assay type: in vivo, human (healthy subjects); settings: for CL/F / Cmax: N = 24, mean ± SD
[6] = cited from earlier work; remark: listed apart in the source
CYP2D6 = settings: following upadacitinib dosing in the cocktail drug interaction study; cited from earlier work
OATP1B = test: In vivo transporter inhibition by upadacitinib inferred from statin exposures; parameters: species or system human (healthy subjects); settings: upadacitinib 30 mg once daily; no increase in rosuvastatin or atorvastatin exposures
BCRP [7] = target: T1, BCRP (Homo sapiens, UniProt Q9UNQ0); test: as above; parameters: species or system human (healthy subjects); settings: upadacitinib 30 mg once daily; no increase in rosuvastatin or atorvastatin exposures
T1 sequence (Q9UNQ0 1-655): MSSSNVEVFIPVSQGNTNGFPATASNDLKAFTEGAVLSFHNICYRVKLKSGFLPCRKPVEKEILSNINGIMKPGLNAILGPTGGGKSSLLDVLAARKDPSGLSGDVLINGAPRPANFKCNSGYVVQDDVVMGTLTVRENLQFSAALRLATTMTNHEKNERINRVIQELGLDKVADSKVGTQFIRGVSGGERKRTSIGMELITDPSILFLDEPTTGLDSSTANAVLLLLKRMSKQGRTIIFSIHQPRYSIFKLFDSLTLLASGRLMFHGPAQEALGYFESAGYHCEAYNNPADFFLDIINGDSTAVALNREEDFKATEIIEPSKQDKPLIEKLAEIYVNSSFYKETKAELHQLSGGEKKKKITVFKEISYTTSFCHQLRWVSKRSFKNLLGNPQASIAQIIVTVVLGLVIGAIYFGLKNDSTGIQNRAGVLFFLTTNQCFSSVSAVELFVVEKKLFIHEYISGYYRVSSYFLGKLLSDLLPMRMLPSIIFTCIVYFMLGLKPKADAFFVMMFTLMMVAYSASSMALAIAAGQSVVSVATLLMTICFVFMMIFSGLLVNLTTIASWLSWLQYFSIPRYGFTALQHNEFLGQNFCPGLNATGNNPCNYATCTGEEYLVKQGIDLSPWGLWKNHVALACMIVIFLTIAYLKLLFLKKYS

P‐glycoprotein = settings: in vitro assessments; cited from earlier work
CYP2C9 = settings: following upadacitinib dosing in the cocktail drug interaction study; cited from earlier work
[8] = system: organic anion transporting polypeptide (OATP) 1B1; settings: in vitro assessments, at clinically relevant concentrations; cited from earlier work
BCRP [9] = settings: in vitro assessments, at clinically relevant concentrations; cited from earlier work
[10] = assay type: in vivo, human (healthy subjects); settings: for CL/F: N = 12, mean ± SD
CYP2C19 = settings: following upadacitinib dosing in the cocktail drug interaction study; cited from earlier work
[11] = atorvastatin 10 mg + upadacitinib 30 mg once daily, period 2 day 7, N = 24
[12] = atorvastatin 10 mg alone, period 1 day 1, N = 24
[13] = atorvastatin 10 mg alone, period 1 day 1, N = 24, mean ± SD
[14] = rosuvastatin 5 mg, upadacitinib 30 mg once daily
[15] = part 2, period 2 day 6, upadacitinib 30 mg once daily alone
[16] = part 2, period 2 day 7, upadacitinib 30 mg once daily + atorvastatin 10 mg single dose
[17] = upadacitinib 30 mg once daily at steady state

CC(C)c1nc(NS(C)(=O)=O)nc(-c2ccc(F)cc2)c1/C=C/[C@@H](O)C[C@@H](O)CC(=O)O [N‐desmethyl rosuvastatin]
Inhibitory activity of HMG‐CoA reductase compared to rosuvastatin (HMG‐CoA reductase): minimal inhibitory activity

CC(C)c1c(C(=O)Nc2ccccc2)c(-c2ccccc2)c(-c2ccc(F)cc2)n1CC[C@@H](O)C[C@@H](O)CC(=O)O [atorvastatin]
Tolerability (Safety monitoring): generally well tolerated

C#C[C@]1(O)CC[C@H]2[C@@H]3CCc4cc(O)ccc4[C@H]3CC[C@@]21C [ethinylestradiol]
Effect of upadacitinib on plasma exposures [1]: lack of effect; also recorded: no effect

C#C[C@]1(O)CC[C@H]2[C@@H]3CCC4=CC(=O)CC[C@@H]4[C@H]3CC[C@@]21CC [levonorgestrel]
Effect of upadacitinib on plasma exposures [1]: lack of effect; also recorded: no effect

Cc1ncc2n1-c1ccc(Cl)cc1C(c1ccccc1F)=NC2 [midazolam]
Decrease in AUC when administered with upadacitinib relative to alone (CYP3A): 26%
Decrease in Cmax when administered with upadacitinib relative to alone (CYP3A): 26%

CC(C)c1c(C(=O)Nc2ccccc2O)c(-c2ccccc2)c(-c2ccc(F)cc2)n1CC[C@@H](O)C[C@@H](O)CC(=O)O [ortho‐hydroxyatorvastatin]
t1/2 (arithmetic mean ± standard deviation) [11]: 10.7 ± 2.76 h
t1/2 (harmonic mean ± pseudo-standard deviation) [11]: 10.0 ± 2.60 h
t1/2 (arithmetic mean ± standard deviation) [12]: 12.9 ± 5.76 h
t1/2 (harmonic mean ± pseudo-standard deviation) [12]: 11.1 ± 3.92 h
Ortho‐hydroxyatorvastatin to atorvastatin AUCinf ratio [13]: 1.39 ± 0.499
Ortho‐hydroxyatorvastatin to atorvastatin AUCt ratio [13]: 1.33 ± 0.492
tmax (atorvastatin 10 mg alone, period 1 day 1, N = 24, median (minimum-maximum)): 4.0 (2.0‐8.0) h
Cmax (atorvastatin 10 mg single dose + upadacitinib 30 mg once daily, period 2 day 7, N = 24, mean ± SD): 1.54 ± 0.610 ng/mL
Cmax (atorvastatin 10 mg single oral dose alone, period 1 day 1, N = 24, mean ± SD): 1.58 ± 0.716 ng/mL

CC(C)c1nc(N(C)S(C)(=O)=O)nc(-c2ccc(F)cc2)c1/C=C/[C@@H](O)C[C@@H](O)CC(=O)O [rosuvastatin]
Tolerability (Safety monitoring): generally well tolerated
AUC(0-inf) ([2]; human, plasma, oral, 5 mg): 22.8 ± 6.69 ng·h/mL
AUC(0-t) ([2]; human, plasma, oral, 5 mg): 17.5 ± 6.53 ng·h/mL
half-life ([2]; human, plasma, oral, 5 mg, t1/2 (arithmetic mean ± standard deviation), rosuvastatin 5 mg alone, period 1 day 1, N = 12): 27.5 h
Cmax ([2]; human, plasma, po, 5 mg): 1.91 ± 0.699 ng/mL
Cmax central value ratio (90%CI) ([2]; rosuvastatin 5 mg with upadacitinib 30 mg once daily versus rosuvastatin alone): 0.77
AUCinf lower when administered with upadacitinib relative to alone [2, 14]: 33%
Cmax lower when administered with upadacitinib relative to alone [2, 14]: 23%
Intrasubject variability in plasma exposures [3]: ≈ 25%

CC[C@@H]1CN(C(=O)NCC(F)(F)F)C[C@@H]1c1cnc2cnc3[nH]ccc3n12 [upadacitinib]
Substrate for BCRP [4]: is a substrate
Tolerability (Safety monitoring): generally well tolerated
Patients reporting constipation (grade 1) (Safety monitoring; during treatment with rosuvastatin and upadacitinib, N = 12): 1 patient
New safety findings (Safety monitoring; upadacitinib alone or with the statins): no new safety findings
Effect on CYP1A2 activity (CYP1A2): No relevant effects
AUC ([5]; human, plasma, oral, 30 mg): 547 ± 112 ng·h/mL
concentration at 24 h ([5]; human, plasma, oral, 30 mg): 4.3 ± 1.74 ng/mL
CL/F [5, 15]: 57.2 ± 12.3 L/h
Cmax [5, 15]: 76.5 ± 16.1 ng/mL
CL/F [5, 16]: 58.4 ± 11.7 L/h
Cmax [5, 16]: 73.2 ± 17.1 ng/mL
Effect of single 10‐mg dose of atorvastatin on upadacitinib Cmax or AUC [5, 17]: no relevant effect
Time to steady state ([6]; once‐daily dosing of the extended‐release formulation): ≤ 4 days
Accumulation in plasma ([6]; repeated once‐daily dosing of the extended‐release formulation): no significant accumulation
Effect on CYP2D6 activity (CYP2D6): No relevant effects
Inhibition of OATP1B in vivo (OATP1B): lack of inhibition
Inhibition of BCRP in vivo (BCRP [7]): lack of inhibition
Substrate for P‐glycoprotein (P‐glycoprotein): is a substrate
Effect of upadacitinib on the pharmacokinetics of rosuvastatin ([2]; upadacitinib 30 mg once daily, rosuvastatin 5 mg): no clinically relevant effect
Effect on CYP2C9 activity (CYP2C9): No relevant effects
Inhibition of OATP1B1 [8]: not expected to inhibit
Inhibition of BCRP (BCRP [9]): not expected to inhibit
Effect of upadacitinib on the pharmacokinetics of atorvastatin (upadacitinib 30 mg once daily, atorvastatin 10 mg): no clinically relevant effect
AUC ([10]; human, plasma, oral, 30 mg): 585 ± 153 ng·h/mL
Cmax ([10]; human, plasma, oral, 30 mg): 73 ± 23.6 ng/mL
concentration at 24 h ([10]; human, plasma, oral, 30 mg): 5.17 ± 1.56 ng/mL
CL/F ([10]; part 1, period 2 day 6, upadacitinib 30 mg once daily alone): 54.6 ± 14.4 L/h
CL/F ([10]; part 1, period 2 day 7, upadacitinib 30 mg once daily + rosuvastatin 5 mg single dose): 55.9 ± 14.7 L/h
Effect of single 5‐mg dose of rosuvastatin on upadacitinib Cmax or AUC [10, 17]: no relevant effect
Effect on CYP2C19 activity (CYP2C19): No relevant effects

Source: publication PMC8596765 (Clinical Pharmacology in Drug Development, 2021)
